Common to all, as to format: cell-based
For assay [1], the target named is T1, long form of human GPR120 (Homo sapiens, UniProt Q5NUL3).
T1 construct: host or cells: PathHunter CHO-K1 GPR120 β-Arrestin Cell Line
As to the kind of experiment: Human GPR120 DiscoveRx PathHunter Beta-Arrestin assay, Procedure β-arrestin A. An outline of the steps:
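PathHunter CHO-K1 cells expressing long-form human GPR120 (3000/well) were seeded overnight. They were then preincubated 60 min in HBSS with 20 mM HEPES and 0.1% BSA, pH 7.4, and exposed to compound for 90 min at 37 °C. β-Arrestin recruitment was read as β-gal complementation luminescence. EC50 came from % activity versus positive control, Hill slope fixed at 1.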

The target in another assay is T2, Human GPR120 short form (Homo sapiens, UniProt Q5NUL3).
T2 construct: expressed in transfected cells
T2 sequence (Q5NUL3 1-361): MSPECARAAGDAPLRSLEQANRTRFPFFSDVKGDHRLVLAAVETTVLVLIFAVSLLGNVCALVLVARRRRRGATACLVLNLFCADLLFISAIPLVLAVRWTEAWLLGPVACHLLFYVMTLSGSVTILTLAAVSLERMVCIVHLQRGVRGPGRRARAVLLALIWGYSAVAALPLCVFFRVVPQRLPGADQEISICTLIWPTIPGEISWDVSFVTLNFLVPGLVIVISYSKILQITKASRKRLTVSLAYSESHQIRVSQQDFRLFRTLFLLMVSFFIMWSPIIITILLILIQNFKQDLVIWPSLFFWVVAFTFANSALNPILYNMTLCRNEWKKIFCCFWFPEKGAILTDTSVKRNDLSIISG
As to the kind of experiment: Human GPR120 calcium flux assay, Procedure Calcium B (4200 cells/well). An outline of the steps: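 HEK293 cells stably expressing human GPR120 (NM_001195755.1), 4200 cells/well, starved 1 h and loaded with Fluo-4 NW plus probenecid. Ligand-evoked calcium flux read on FLIPR for 300 s after a 10 s baseline. RFU = Fmax−Fmin; EC50 from four-parameter concentration-response fit.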
(Calcium assays in cells follow changes in intracellular calcium, usually with a dye or a luminescent sensor.)

A further assay has as its target T3, human GPR40 (Homo sapiens, UniProt O14842).
T3 construct: expressed in transfected cells
Kind of assay: GPR40 calcium flux assay, human GPR40. The note with it: HEK293 cells stably expressing GPR40; table does not say human or rat. An outline of the steps:
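Cells preincubated 1 h at 37° C. in HBSS, 20 mM HEPES, 0.1% BSA, then Fluo 8 calcium dye 30 min at 37° C. and 15 min at room temperature.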

Molecules are shown by their SMILES. “And” between values parts separate entries of the source, which are not always exact repeats. Identical values can stand only once. Where only a bound is given, the exact number is not on record here.

T3 sequence (O14842 whole entry): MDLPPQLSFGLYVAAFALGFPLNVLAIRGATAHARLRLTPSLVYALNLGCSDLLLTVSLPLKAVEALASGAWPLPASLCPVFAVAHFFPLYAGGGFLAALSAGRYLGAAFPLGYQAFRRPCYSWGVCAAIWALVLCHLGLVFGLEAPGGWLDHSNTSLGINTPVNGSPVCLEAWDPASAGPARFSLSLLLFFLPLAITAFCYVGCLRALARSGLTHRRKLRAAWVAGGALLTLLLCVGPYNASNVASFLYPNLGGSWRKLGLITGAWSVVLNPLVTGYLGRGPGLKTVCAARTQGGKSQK
T1 sequence (Q5NUL3 1-377 isoform Q5NUL3-1): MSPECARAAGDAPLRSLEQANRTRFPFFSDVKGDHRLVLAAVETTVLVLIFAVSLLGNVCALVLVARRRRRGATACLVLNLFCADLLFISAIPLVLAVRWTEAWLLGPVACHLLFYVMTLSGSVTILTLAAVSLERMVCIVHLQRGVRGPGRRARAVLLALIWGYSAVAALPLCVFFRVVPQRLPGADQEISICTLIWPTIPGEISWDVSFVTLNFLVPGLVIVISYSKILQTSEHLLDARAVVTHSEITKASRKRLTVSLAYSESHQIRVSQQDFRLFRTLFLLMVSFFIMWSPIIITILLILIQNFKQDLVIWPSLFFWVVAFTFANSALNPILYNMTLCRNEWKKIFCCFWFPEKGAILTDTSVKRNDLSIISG
T1 sequence (P32121 whole entry partner): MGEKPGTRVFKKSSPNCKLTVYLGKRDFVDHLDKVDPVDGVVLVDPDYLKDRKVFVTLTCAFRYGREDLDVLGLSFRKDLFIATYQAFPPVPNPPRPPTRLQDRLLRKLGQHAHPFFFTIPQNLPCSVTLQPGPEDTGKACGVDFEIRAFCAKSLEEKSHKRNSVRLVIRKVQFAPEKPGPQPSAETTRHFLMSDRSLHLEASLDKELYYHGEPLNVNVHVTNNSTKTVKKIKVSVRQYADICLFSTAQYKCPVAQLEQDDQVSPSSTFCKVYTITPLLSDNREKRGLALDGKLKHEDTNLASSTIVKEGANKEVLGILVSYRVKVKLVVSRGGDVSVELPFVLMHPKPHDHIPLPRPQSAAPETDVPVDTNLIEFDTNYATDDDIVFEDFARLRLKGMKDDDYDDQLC

A word on the EC50: it is the concentration at which the effect is half-maximal. With `Cc1cc(CCC(=O)O)ccc1OCC1=C(c2ccc(F)c(F)c2)CCC(F)(F)C1` [Compound 532, 3-[4-[[2-(3,4-difluorophenyl)-5,5-difluoro-cyclohexen-1-yl]methoxy]-3-methyl-phenyl]Propanoic Acid], the concentration giving a half-maximal response (EC50) in assay [1] was 187 nM; on Human GPR120 short form it was 133 nM; at human GPR40 it was > 5000 nM.
The like results for `Cc1ccc(C2=C(COc3ccc(CCC(=O)O)c(C)c3C)CC(F)(F)C2)cc1F` [Compound 172, 3-[4-[[4,4-difluoro-2-(3-fluoro-4-methyl-phenyl)cyclopenten-1-yl]methoxy]-2,3-dimethyl-phenyl]Propanoic Acid] were, in that order, 32 nM, 42 nM and > 5000 nM.
With `Cc1ccc(C2=C(COc3c(F)cc(CCC(=O)O)cc3F)CC(F)(F)CC2)cc1F` [Compound 525, 3-[4-[[5,5-difluoro-2-(3-fluoro-4-methyl-phenyl)cyclohexen-1-yl]methoxy]-3,5-difluoro-phenyl]Propanoic Acid], the EC50 in assay [1] stood at 121 nM; on Human GPR120 short form, 165 nM; on human GPR40, 4030 nM.
The corresponding values for `Cc1ccc(C2=C(COc3ccc(CCC(=O)O)c(C)c3C)CC(F)(F)CC2)cc1F` [Compound 529, 3-[4-[[5,5-difluoro-2-(3-fluoro-4-methyl-phenyl)cyclohexen-1-yl]methoxy]-2,3-dimethyl-phenyl]Propanoic Acid] are 136 nM, 156 nM and > 5000 nM.
As to `O=C(O)CCc1ccc(OCC2=C(c3ccc(Cl)cc3)CCC2)c(Cl)c1Cl` [Compound 99, 3-[2,3-dichloro-4-[[2-(4-chlorophenyl)cyclopenten-1-yl]methoxy]phenyl]Propanoic Acid], the 50% effective concentration (EC50) in assay [1] is 147 nM; at Human GPR120 short form, 44 nM; at human GPR40, > 5000 nM.
The like results for `Cc1cc(CCC(=O)O)ccc1OCC1=C(c2ccc(C#N)s2)CCC(F)(F)C1` [Compound 573, 3-[4-[[2-(5-cyano-2-thienyl)-5,5-difluoro-cyclohexen-1-yl]methoxy]-3-methyl-phenyl]Propanoic Acid] were, in that order, 643 nM, 444 nM and 4500 nM.
`Cc1cc(CCC(=O)O)ccc1OCC1=C(c2cncs2)CCC(F)(F)C1` [Compound 548, 3-[4-[(5,5-difluoro-2-thiazol-5-yl-cyclohexen-1-yl)methoxy]-3-methyl-phenyl]Propanoic Acid]: the EC50 amounted to 1340 nM in assay [1], 500 nM on Human GPR120 short form and 3490 nM on human GPR40.
The like results for `COC1CC(COc2c(F)cc(CCC(=O)O)cc2F)=C(c2ccc(Cl)cc2)C1` (stereo not drawn) [Compound 187, 3-[4-[[2-(4-chlorophenyl)-4-methoxy-cyclopenten-1-yl]methoxy]-3,5-difluoro-phenyl]Propanoic Acid] were, in that order, 596 nM, 137 nM and 3320 nM.
For the compound `O=C(O)CCc1cc(F)c(OCC2=C(c3ccco3)CCC(F)(F)C2)c(F)c1` [Compound 569, 3-[4-[[5,5-difluoro-2-(2-furyl)cyclohexen-1-yl]methoxy]-3,5-difluoro-phenyl]Propanoic Acid], the EC50 is 519 nM in assay [1], 299 nM at Human GPR120 short form and > 5000 nM at human GPR40.
The like results for `Cc1c(CCC(=O)O)ccc(OCC2=C(c3ccc(F)cc3F)CC(F)(F)C2)c1C` [Compound 173, 3-[4-[[2-(2,4-difluorophenyl)-4,4-difluoro-cyclopenten-1-yl]methoxy]-2,3-dimethyl-phenyl]Propanoic Acid] were, in that order, 40 nM, 49 nM and > 5000 nM.
The like results for `Cc1cc(CCC(=O)O)ccc1OCC1=C(c2ccc(F)c(F)c2)CC(F)(F)C1` [Compound 179, 3-[4-[[2-(3,4-difluorophenyl)-4,4-difluoro-cyclopenten-1-yl]methoxy]-3-methyl-phenyl]Propanoic Acid] were, in that order, 289 nM, 31 nM and > 5000 nM.
`CCOc1ccc(C2=C(COc3c(F)cc(CCC(=O)O)cc3F)CCC2)cn1` [Compound 226, 3-[4-[[2-(6-ethoxy-3-pyridyl)cyclopenten-1-yl]methoxy]-3,5-difluoro-phenyl]Propanoic Acid]: the EC50 in assay [1] was 1290 nM; on Human GPR120 short form, 724 nM; at human GPR40 it was > 5000 nM.
With `Cc1c(CCC(=O)O)ccc(OCC2=C(c3ccc(F)cc3F)CCC(F)(F)C2)c1C` [Compound 534, 3-[4-[[2-(2,4-difluorophenyl)-5,5-difluoro-cyclohexen-1-yl]methoxy]-2,3-dimethyl-phenyl]Propanoic Acid], the 50% effective concentration (EC50) in assay [1] was 157 nM; on Human GPR120 short form it was 96 nM; at human GPR40, > 5000 nM.
The like results for `N#CC1CC(COc2c(F)cc(CCC(=O)O)cc2F)=C(c2ccc(Cl)cc2)C1` (stereo not drawn) [Compound 185, 3-[4-[[2-(4-chlorophenyl)-4-cyano-cyclopenten-1-yl]methoxy]-3,5-difluoro-phenyl]Propanoic Acid] were, in that order, 1440 nM, 360 nM and 3440 nM.
The corresponding values for `O=C(O)CCc1cc(F)c(OCC2=C(c3cccc(F)c3)CC(F)(F)C2)c(F)c1` [Compound 215, 3-[4-[[4,4-difluoro-2-(3-fluorophenyl)cyclopenten-1-yl]methoxy]-3,5-difluoro-phenyl]Propanoic Acid] are 282 nM, 75 nM and > 5000 nM.
The like results for `O=C(O)CCc1cc(F)c(OCC2=C(c3ccc(Cl)s3)CCC(F)(F)C2)c(F)c1` [Compound 543, 3-[4-[[2-(5-chloro-2-thienyl)-5,5-difluoro-cyclohexen-1-yl]methoxy]-3,5-difluoro-phenyl]Propanoic Acid] were, in that order, 287 nM, 191 nM and > 5000 nM.
Consider `O=C(O)CCc1ccc(OCC2=C(c3ccc(F)cc3)CC(F)C2)cc1C(F)(F)F` (stereo not drawn) [Compound 186, 3-[4-[[4-fluoro-2-(4-fluorophenyl)cyclopenten-1-yl]methoxy]-2-(trifluoromethyl)phenyl]Propanoic Acid], for which the EC50 in assay [1] amounted to 1790 nM; on Human GPR120 short form, 453 nM; on human GPR40 it was 382 nM.
The corresponding values for `Cc1cc(CCC(=O)O)ccc1OCC1=C(c2ccc(F)cc2)CC(F)(F)C1` [Compound 180, 3-[4-[[4,4-difluoro-2-(4-fluorophenyl)cyclopenten-1-yl]methoxy]-3-methyl-phenyl]Propanoic Acid] are 78 nM, 26 nM and > 5000 nM.
The corresponding values for `Cc1cc(CCC(=O)O)ccc1OCC1=C(c2ccc(F)cc2F)CCC(F)(F)C1` [Compound 535, 3-[4-[[2-(2,4-difluorophenyl)-5,5-difluoro-cyclohexen-1-yl]methoxy]-3-methyl-phenyl]Propanoic Acid] are 108 nM, 120 nM and > 5000 nM.
Take `O=C(O)CCc1ccc(OCC2=C(c3ccc(Cl)cc3)CCC2)cc1C(F)(F)F` [Compound 39, 3-[4-[[2-(4-chlorophenyl)cyclopenten-1-yl]methoxy]-2-(trifluoromethyl)phenyl]Propanoic Acid]: the EC50 was 491 nM in assay [1]; 215 nM at Human GPR120 short form; 131 nM and 182 nM on human GPR40.
Take `O=C(O)CCc1ccc(OCC2=C(c3ccc(F)cc3)CC(F)(F)C2)cc1C(F)(F)F` [Compound 188, 3-[4-[[4,4-difluoro-2-(4-fluorophenyl)cyclopenten-1-yl]methoxy]-2-(trifluoromethyl)phenyl]Propanoic Acid]: the EC50 came to 548 nM in assay [1], 411 nM on Human GPR120 short form and 142 nM at human GPR40.
For `Cc1cc(CCC(=O)O)cc(Br)c1OCC1=C(c2ccc(Cl)cc2)CCC1` [Compound 30, 3-[3-bromo-4-[[2-(4-chlorophenyl)cyclopenten-1-yl]methoxy]-5-methyl-phenyl]Propanoic Acid], the half-maximal effective concentration (EC50) in assay [1] is 512 nM; on Human GPR120 short form it was 461 nM; at human GPR40, > 5000 nM.
The like results for `N#Cc1ccc(C2=C(COc3c(F)cc(CCC(=O)O)cc3F)CC(F)(F)CC2)s1` [Compound 572, 3-[4-[[2-(5-cyano-2-thienyl)-5,5-difluoro-cyclohexen-1-yl]methoxy]-3,5-difluoro-phenyl]Propanoic Acid] were, in that order, 1010 nM, 641 nM and > 5000 nM.
The like results for `Cc1cc(CCC(=O)O)cc(F)c1OCC1=C(c2ccc(F)cc2)CC(F)(F)C1` [Compound 204, 3-[4-[[4,4-difluoro-2-(4-fluorophenyl)cyclopenten-1-yl]methoxy]-3-fluoro-5-methyl-phenyl]Propanoic Acid] were, in that order, 359 nM, 125 nM and > 5000 nM.

These data come from patent US11230526B1, “Cylcoalkenyl derivatives useful as agonists of the GPR120 and/or GPR40 receptors” (Janssen Pharmaceutica NV, priority 2018, dated 2022).
